Laboratory results: US6159733A, “Method for photoinactivating malignant cells” (priority 1996, dated 2000)

How the values were obtained:
Type in all cases: cell-based, murine
[1] = tested on: cell lines (ABE-8.1/2, BC3A, L1210, P815, WEHI-3); assay: Survival of cell lines after incubation with Pc 4; details: Mus musculus, light or radiation study, read-out: surviving fractions of the cell lines after incubation
Description: (§1) Cell lines and culture conditions. WEHI-3 (murine myelocytic leukemia), L1210 (murine lymphocytic leukemia) and P815 (murine mastocytoma) cells were grown in RPMI 1640 (GibcoBRL, Grand Island, N.Y.) supplemented with 10% FBS. BC3A (murine leukemia) cells were grown in RPMI 1640 supplemented with 10 μM β-mercaptoethanol and 10% FBS; ABE-8.1/2 (murine pre-B lymphoma) cells were grown in DMEM (GibcoBRL)--10 μM β-mercaptoethanol--10% FBS. All cell lines were obtained from the American Type Culture Collection (Rockville, Md.) and were cultured at 37° C. in a humidified 5% CO2 -incubator. Prior to incubation with Pc 4, the cell lines were centrifuged and resuspended in phosphate buffered saline (PBS)--10% FBS, pH 7.4.
Photosensitization. […]
Cell line samples were plated (in triplicate) in a semi-solid medium which consisted of DMEM--20% vol/vol serum (2/3 horse serum, 1/3 FBS)--3 mM glutamine--60 μM β-mercaptoethanol--0.3% wt/vol agar. The samples were incubated at 37° C. in a humidified 5% CO2 -incubator, and colonies consisting of more than 50 cells were counted after nine days.
Statistics. […] Data are expressed as mean values±standard error of the mean (SEM). […] The significance of the differences between experimental values was assessed by means of the Student's t-test.

WEHI-3 cells = assay: Uptake of Pc 4, flow cytometry; details: for Pc 4 content / Pc 4 content per cell volume: 15 nM
Description: as §1
(§2) In mixing experiments, aliquots of Ly-5.2 BM and cell lines samples were mixed at different ratios. The combined cell concentration of each sample was 1.5×10^7 cells/mL. […] The cell lines were stained with anti-Ly-5.1^FITC. This treatment allowed clear resolution of the relatively small ABE-8.1/2 and BC3A cells from the bone marrow granulocytes. Immediately prior to the analyses, propidium iodide (PI, 0.5 μg/mL) was added to the samples to allow exclusion of dead cells (PI^+) from the analyses. The samples were analyzed in a FACStar^PLUS (BD) that was equipped with an argon ion laser tuned to 488 nm (200 mW) and a dye laser tuned to 610 nm (300 mW). FITC, PE, PI and Pc 4 fluorescence emissions were collected through 530/30, 575/42, 660/10, 670/10 nm band pass filters, respectively.
(§3) Cell size. Microscopic measurements of at least 20 cells were performed using a calibrated micrometer. To determine the cell size of the BM progenitor subsets, the c-kit^+,Sca-1^- and c-kit^+,Sca-1^+ fractions were sorted. The sorted cells were centrifuged and the pellets were resuspended in a 20 μl of HBBS. Samples were deposited onto microscope slides and covered with a cover slip. Cell diameters of 7.7±0.2 (c-kit^+,Sca-1^+), 8.4±0.3 (c-kit^+,Sca-1^-), 10.9±0.2 (BC3A), 11.1±0.2 (ABE-8.1/2), 13.0±0.3 (L1210), 14.2±0.3 (P815), 15.0±0.4 μm (WEHI-3) were obtained.

BC3A cells = assay: Uptake of Pc 4, flow cytometry
Description: as §1, §2, §3

L1210 cells = assay: Uptake of Pc 4, flow cytometry; details: for Pc 4 content / Pc 4 content per cell volume: 15 nM
Description: as §1, §2, §3

[2] = 1.5×10^6 cells/ml during incubation
[3] = 1.5×10^7 cells/ml during incubation
[4] = from 8.0×10^5 to 1.5×10^7 cells/mL
[5] = 15 nM, 1.5×10^6 cells/ml during incubation
[6] = 15 nM, 1.5×10^7 cells/ml during incubation

Question: What does the source list for CN(C)CCC[Si](C)(C)O[Si]1(O)n2c3c4ccccc4c2N=C2N=C(N=c4c5ccccc5c(n41)=NC1=NC(=N3)c3ccccc31)c1ccccc12 (centres unmarked) [Pc 4, hydroxysiloxy-dimethylpropyl-N-dimethyl silicon phthalocyanine]?
Answer: viability at 0.015 µM [1]: 73 to 100%; Pc 4 content (WEHI-3 cells; [2]): 296 ± 8.5 Mean fluorescence/cell; Pc 4 content per cell volume (WEHI-3 cells; [2]): 0.17 Mean fluorescence/μm^3; Pc 4 content (WEHI-3 cells; [3]): 57 ± 4.7 Mean fluorescence/cell; Pc 4 content per cell volume (WEHI-3 cells; [3]): 0.03 Mean fluorescence/μm^3; reduction of Pc 4 uptake (WEHI-3 cells; [4]): 5.1 fold; cell concentration at which uptake reached a plateau (BC3A cells; 15 nM): 8.0×10^5 cells/mL; Pc 4 content (BC3A cells; [5]): 137 ± 11.3 Mean fluorescence/cell; Pc 4 content per cell volume (BC3A cells; [5]): 0.20 Mean fluorescence/μm^3; Pc 4 content (BC3A cells; [6]): 80 ± 5.5 Mean fluorescence/cell; Pc 4 content per cell volume (BC3A cells; [6]): 0.12 Mean fluorescence/μm^3; reduction of Pc 4 uptake (BC3A cells; [4]): 1.6 fold; Pc 4 content (L1210 cells; [2]): 291 ± 14.0 Mean fluorescence/cell; Pc 4 content per cell volume (L1210 cells; [2]): 0.25 Mean fluorescence/μm^3; Pc 4 content (L1210 cells; [3]): 124 ± 4.2 Mean fluorescence/cell; Pc 4 content per cell volume (L1210 cells; [3]): 0.11 Mean fluorescence/μm^3; reduction of Pc 4 uptake (L1210 cells; [4]): 2.5 fold
